# Data: US20160256457A1, “METHODS FOR TREATING OR PREVENTING ACUTE VASCULAR LEAK” (Beth Israel Deaconess Medical Center, Inc., priority 2014, published 2016)
# “Also recorded” adds a separate entry of the source.
# What was measured:
# [1] = test system: Primary human dermal microvascular endothelial cells; assay: ECIS steady-state barrier function of confluent endothelial monolayers; format: cell-based; details: for endothelial barrier function (ECIS) compared to other Src inhibitors / endothelial barrier function (ECIS) compared to benchmark agents: bosutinib 300 nM; for endothelial barrier function (ECIS) compared to other Src inhibitors: dasatinib 300 nM, PP2 10 μM, monitored ~22 hours, FIG. 7; for endothelial barrier function (ECIS) compared to benchmark agents: HGF 100 ng/ml (1200 nM), APC 500 nM, monitored ~18 hours, FIG. 6
# Protocol: (§1) Primary human dermal microvascular endothelial cells were grown to confluence. […] Data are mean±SEM of three independent experiments.
# as §1, §1
# Src = Src (Homo sapiens, UniProt P12931); details: cited from earlier work
# FIP rats = assay: Polymicrobial sepsis model (feces-induced peritonitis; FIP), intravital microscopy of the hindlimb; format: in vivo, rat
# Protocol: Disease onset was initiated by tail vein injection of a solution of saline and rat feces. […] Microvascular parameters were measured through intravital microscopy of the hindlimb at baseline, 3 hr and 5 hr post FIP onset. […] Data are representative of two separate pilot experiments.
# [2] = test system: Primary human dermal microvascular endothelial monolayers; assay: Confocal imaging of actin and VE-cadherin junctions during permeability challenge; format: cell-based
# Text: Samples were fixed and stained for actin (i) and the junctional marker VE-cadherin (ii) before imaging by confocal microscopy. To assess quality of endothelial junctions (see B), image thresholding was applied to the VE-cadherin images to delineate the junctions (line traces in [iii]). […] Scale bar represents 10 μm.
# Primary human dermal microvascular endothelial monolayers were challenged with either Thrombin (Thr) or Histamine (His) as described above for FIG. 5A. Quantitative analysis of (i) total junctional area per field and (ii) VE-cadherin intensity within junctions were performed to assess maintenance of junctional integrity. […] Data are mean±SEM of three independent experiments.
# [3] = test system: Primary human dermal microvascular endothelial cells; assay: Thrombin- and histamine-induced vascular permeability assays (ECIS), pretreatment; format: cell-based; details: for protection to histamine challenge / protection to thrombin challenge: 300 nM for 30 min; for protection to histamine challenge: then histamine 300 μM, FIG. 3B; for protection to thrombin challenge: then thrombin 2.5 U/ml, FIG. 3A
# Protocol: For all assays, primary human dermal microvascular endothelial cells were grown to confluence. Steady state barrier function was monitored by ECIS and normalized to a value of 1. […] Data are mean±SEM of three independent experiments.
# [4] = test system: Primary bovine aortic endothelial cells; assay: ECIS barrier function, dose response over 72 hours; format: cell-based; details: FIG. 2; for vascular barrier function (ECIS resistance, normalized to 1): single doses, 10 nM to 3 μM, monitored 72 hours
# Protocol: Primary bovine aortic endothelial cells were grown to confluence. Steady state barrier function was monitored by ECIS for 24 hours and normalized to a value of 1. […] Data are mean±SEM of three independent experiments.
# [5] = imaging-based analysis, FIGS. 5A and 5B
# Src, sequence (P12931 whole entry, species assumed): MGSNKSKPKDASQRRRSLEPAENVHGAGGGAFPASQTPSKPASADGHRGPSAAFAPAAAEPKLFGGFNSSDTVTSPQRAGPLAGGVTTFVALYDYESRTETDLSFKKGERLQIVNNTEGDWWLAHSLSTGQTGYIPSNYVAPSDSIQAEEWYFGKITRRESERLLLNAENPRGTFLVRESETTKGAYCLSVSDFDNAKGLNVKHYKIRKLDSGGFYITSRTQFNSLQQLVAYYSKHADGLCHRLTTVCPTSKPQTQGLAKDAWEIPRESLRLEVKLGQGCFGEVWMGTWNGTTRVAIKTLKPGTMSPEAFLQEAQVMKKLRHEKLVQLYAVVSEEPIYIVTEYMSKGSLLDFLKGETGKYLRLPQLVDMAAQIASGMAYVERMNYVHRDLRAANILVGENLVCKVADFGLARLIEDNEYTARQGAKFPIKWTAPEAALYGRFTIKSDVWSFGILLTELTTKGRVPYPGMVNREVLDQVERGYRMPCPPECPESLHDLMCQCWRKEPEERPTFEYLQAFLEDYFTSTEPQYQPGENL
molecule,measurement,setting,value
"CC(C)(C)n1nc(-c2ccc(Cl)cc2)c2c(N)ncnc21 [PP2, 3-(4-chlorophenyl)-1-(1,1-dimethylethyl)-1H-pyr-azolo[3,4-d]pyrimidin-4-amine]",endothelial barrier function (ECIS) compared to other Src inhibitors,[1],"greatly reduced, endothelial barrier function; also recorded: sustained decreases in barrier function"
COc1cc(Nc2c(C#N)cnc3cc(OCCCN4CCN(C)CC4)c(OC)cc23)c(Cl)cc1Cl [bosutinib],endothelial barrier function (ECIS) compared to benchmark agents,[1],exhibits unprecedented efficacy and duration of action
same,endothelial barrier function (ECIS) compared to benchmark agents,[1]; listed as Bosutinib,significant and sustained increase in barrier function
same,endothelial barrier function (ECIS) compared to other Src inhibitors,[1],sustained increase in barrier function
same,"vascular barrier function (ECIS resistance, normalized to 1)","[1]; single 300 nM dose, monitored 3 hours, FIG. 1",profoundly enhanced base-line barrier properties; also recorded: increases in resistance
same,efficacy against Src kinase,Src,low nanomolar range
same,percent oxygen saturation,"FIP rats; 10 mg/kg loading dose at 30 min, 5 mg/kg every two hours, tail vein, FIG. 8C","effectively preserved; also recorded: similarly maintained in bosutinib-treated, but not control, FIP rats"
same,capillary diameter,"FIP rats; 10 mg/kg loading dose at 30 min, 5 mg/kg every two hours, tail vein, FIG. 8D",unaltered; also recorded: unchanged in both control and bosutinib rats
same,red blood cell (RBC) velocity,"FIP rats; 10 mg/kg loading dose at 30 min, 5 mg/kg every two hours, tail vein, baseline, 3 hr and 5 hr post FIP onset, FIG. 8A","rapidly decline following sepsis onset in control rats, but not in bosutinib-treated rats"
same,RBC supply rate,"FIP rats; 10 mg/kg loading dose at 30 min, 5 mg/kg every two hours, tail vein, baseline, 3 hr and 5 hr post FIP onset, FIG. 8B","rapidly decline following sepsis onset in control rats, but not in bosutinib-treated rats"
same,microvascular flow,"FIP rats; pilot studies, septic rats, FIGS. 8A and 8B",effectively preserved
same,endothelial junction continuity and gap formation,"[2]; 300 nM 30 min pretreatment, thrombin 2.5 U/ml or histamine 300 μM for 30 min, FIG. 5A",maintains continuous junctions and cortical actin during challenge
same,VE-cadherin and cortical actin at the intercellular junctions,[2]; [5],increase in VE-cadherin and cortical actin at the intercellular junctions
same,actin stress fibers in endothelial cells,[2]; [5],decrease in actin stress fibers
same,total junctional area per field,"[2]; thrombin or histamine challenge, FIG. 5B",significantly increased junctional area compared to vehicle controls
same,protection to histamine challenge,[3],100%
same,protection to thrombin challenge,[3],~50%
same,protection against pro-leak stimuli by pretreatment,"[3]; thrombin, histamine, Ang-II and TNF-α",conferred profound protection against a range of pro-leak stimuli
same,duration of sustained barrier enhancement,[4]; longest experiments conducted thus far,> 72 h
same,"vascular barrier function (ECIS resistance, normalized to 1)",[4],"sustained, dose-dependent increase in vascular barrier function"
same,"vascular barrier function (ECIS resistance, normalized to 1)",[4]; listed as Bosutinib,sustained barrier enhancement effects in a dose-dependent manner
"Cc1ccc(NC(=O)c2ccc(CN3CCN(C)CC3)cc2)cc1Nc1nccc(-c2cccnc2)n1 [imatinib, Imatinib]",protection to histamine challenge,[3],5-10%
same,protection to thrombin challenge,[3],5-10%
activated protein C [APC],endothelial barrier function (ECIS) compared to benchmark agents,[1],increase in barrier function that was relatively minor in both magnitude and duration
hepatocyte growth factor [HGF],endothelial barrier function (ECIS) compared to benchmark agents,[1],"initially promoted a similar increase, which was rapidly reversed after ˜20 minutes leading ultimately to a sustained decrease in barrier function"
